# From ChEMBL document CHEMBL4043279 (Bioorg Med Chem Lett, 2017)
# Key:
# THP-1 = test: Antiproliferative activity against human THP1 cells treated for 24 hrs measured after 72 hrs by MTT assay; type: functional, cell-based
# PC-3 = test: Antiproliferative activity against human PC3 cells treated for 24 hrs measured after 72 hrs by MTT assay; type: functional, cell-based
# PBMC = test: Antiproliferative activity against human PBMC treated for 24 hrs measured after 72 hrs by MTT assay; type: cell-based
# HepG2 = test: Antiproliferative activity against human HepG2 cells treated for 24 hrs measured after 72 hrs by MTT assay; type: functional, cell-based
# HL-60 = test: Antiproliferative activity against human HL60 cells treated for 24 hrs measured after 72 hrs by MTT assay; type: functional, cell-based
SMILES,IC50 (THP-1),IC50 (PC-3),IC50 (PBMC),IC50 (HepG2),IC50 (HL-60)
CN1c2ccccc2C(=O)N2CCc3c(n(CCCOC(=O)c4ccc(N(CCCl)CCCl)cc4)c4ccccc34)C21 (stereo not given),6.6 µM,> 100 µM,> 200 µM,> 100 µM,30.9 µM
CN1c2ccccc2C(=O)N2CCc3c(n(CCO)c4ccccc34)C21 (stereo not given),1.64 µM,12.3 µM,> 200 µM,> 100 µM,7.1 µM
CN1c2ccccc2C(=O)N2CCc3c(n(CCOC(=O)CCCc4ccc(N(CCCl)CCCl)cc4)c4ccccc34)C21 (stereo not given),4.82 µM,45.7 µM,> 200 µM,> 100 µM,11.3 µM
COC(=O)[C@H](Cc1ccc(N(CCCl)CCCl)cc1)NC(=O)CCC(=O)OCCn1c2c(c3ccccc31)CCN1C(=O)c3ccccc3N(C)C21 (stereo not given in full),9.37 µM,> 100 µM,> 200 µM,> 100 µM,3.11 µM
COC(=O)[C@H](Cc1ccc(N(CCCl)CCCl)cc1)NC(=O)CCC(=O)OCCCCCCn1c2c(c3ccccc31)CCN1C(=O)c3ccccc3N(C)C21 (stereo not given in full),4.24 µM,> 100 µM,> 200 µM,> 100 µM,2.84 µM
CN1c2ccccc2C(=O)N2CCc3c(n(CCCCCCOC(=O)CCCc4ccc(N(CCCl)CCCl)cc4)c4ccccc34)C21 (stereo not given),10.5 µM,> 100 µM,> 200 µM,> 100 µM,17.5 µM
CN1c2ccccc2C(=O)N2CCc3c(n(CCCO)c4ccccc34)C21 (stereo not given),8.89 µM,27.3 µM,> 200 µM,> 100 µM,6.03 µM
CN1c2ccccc2C(=O)N2CCc3c(n(CCCOCCCOC(=O)c4ccc(N(CCCl)CCCl)cc4)c4ccccc34)C21 (stereo not given),9.29 µM,> 100 µM,> 200 µM,> 100 µM,22.3 µM
COC(=O)[C@H](Cc1ccc(N(CCCl)CCCl)cc1)NC(=O)CCC(=O)O,3.84 µM,> 100 µM,> 200 µM,13.8 µM,5.34 µM
CN1c2ccccc2C(=O)N2CCc3c(n(CCOC(=O)c4ccc(N(CCCl)CCCl)cc4)c4ccccc34)C21 (stereo not given),33.6 µM,> 100 µM,> 200 µM,> 100 µM,27.2 µM
